Strand notation (5' to 3'): a small letter for the sugar, then the base; units joined by * are phosphorothioate-linked, units joined directly phosphodiester-linked; [ ] holds rarer units or linkages, { } end groups; capitals alone tell only the bases. e = 2'-O-(2-methoxyethyl) (MOE); k = constrained ethyl (cEt); [5mC] = 5-methylcytosine; d = 2'-deoxy (DNA)
Columns and labels:
human PKK mRNA [1] = experiment: Antisense inhibition of human PKK mRNA in HepaRG cells, 1,000 nM, MOE/deoxy/cEt oligonucleotides (Example 3); assay type: cell-based
Summary of the method: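 HepaRG cells at 20,000 per well electroporated with 1,000 nM 16-mer MOE/cEt/deoxy gapmers (phosphorothioate, 5-methylcytosine). After about 24 h, PKK mRNA measured by qRT-PCR with primer probe set RTS3454, normalized to RIBOGREEN total RNA. Reported as percent inhibition versus untreated cells.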

human PKK mRNA [2] = experiment: Dose-dependent antisense inhibition of human PKK in HepaRG cells, 0.11-3.00 uM (Example 6); assay type: cell-based; details: for IC50: 0.11-3.00 μM; for percent inhibition of PKK mRNA, 0.11 μM / percent inhibition of PKK mRNA, 0.33 μM / percent inhibition of PKK mRNA, 1.00 μM / percent inhibition of PKK mRNA, 3.00 μM: electroporation, approx. 16 hours, relative to untreated control cells
Summary of the method: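 HepaRG cells were electroporated with antisense oligonucleotide at 0.11, 0.33, 1.00 or 3.00 μM. After about 16 h, PKK mRNA was quantified by qRT-PCR with primer probe set RTS3454 and normalized to total RNA by RIBOGREEN. IC50 was derived from the dose series.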

[3] = HepaRG cells, electroporation with 1,000 nM antisense oligonucleotide, approx. 24 hours, PKK mRNA by RT-PCR (RTS3454), relative to untreated control cells, Table 25 experiment
[4] = HepaRG cells, electroporation with 1,000 nM antisense oligonucleotide, approx. 24 hours, PKK mRNA by RT-PCR (RTS3454), relative to untreated control cells, Table 26 experiment
[5] = Table 27, HepaRG cells, 1,000 nM antisense oligonucleotide, human PKK mRNA
[6] = Table 30, human PKK mRNA, HepaRG cells, 1,000 nM antisense oligonucleotide
[7] = Table 28, HepaRG cells, 1,000 nM antisense oligonucleotide, human PKK mRNA
[8] = HepaRG cells, 1,000 nM antisense oligonucleotide, Table 29

Substance | % inhibition (human PKK mRNA [1]; [3]) | IC50 (human PKK mRNA [2]) | percent inhibition of PKK mRNA, 0.11 μM (human PKK mRNA [2]) | percent inhibition of PKK mRNA, 0.33 μM (human PKK mRNA [2]) | percent inhibition of PKK mRNA, 1.00 μM (human PKK mRNA [2]) | percent inhibition of PKK mRNA, 3.00 μM (human PKK mRNA [2]) | % inhibition (human PKK mRNA [1]; [4]) | % inhibition (human PKK mRNA [1]; [5]) | % inhibition (human PKK mRNA [1]; [6]) | % inhibition (human PKK mRNA [1]; [7]) | % inhibition (human PKK mRNA [1]; [8])
548197 (eT*eG*k[5mC]*dT*dT*dG*dG*d[5mC]*dT*dT*d[5mC]*dA*dA*kT*kA*eT; antisense) [compound 548197] | 68% | 800 nM | 33% | 37% | 51% | 75% | – | – | – | – | –
548201 (eT*eG*kT*dT*d[5mC]*dT*dA*dA*dT*dG*dT*dG*dG*k[5mC]*kA*e[5mC]; antisense) [compound 548201] | 67% | 800 nM | 0% | 7% | 70% | 85% | – | – | – | – | –
548217 (e[5mC]*eT*kG*dT*dG*d[5mC]*dA*dT*dA*dG*dA*d[5mC]*d[5mC]*k[5mC]*k[5mC]*eA; antisense) [compound 548217] | 69% | 900 nM | 22% | 24% | 54% | 71% | – | – | – | – | –
548220 (eG*e[5mC]*kA*dG*dA*dA*dA*dT*d[5mC]*d[5mC]*dT*dG*dT*kG*k[5mC]*eA; antisense) [compound 548220] | 69% | > 3000 nM | 0% | 0% | 0% | 6% | – | – | – | – | –
548247 (antisense e[5mC]*eG*kA*dT*dT*dT*dT*d[5mC]*d[5mC]*dA*dT*dG*d[5mC]*kA*kT*eA) [compound 548247] | – | 500 nM | 16% | 50% | 62% | 82% | 56% | – | – | – | –
548265 (antisense e[5mC]*e[5mC]*kT*d[5mC]*dT*dT*dG*dA*dT*dT*dT*dG*dG*kG*k[5mC]*eA) [compound 548265] | – | – | 47% | 69% | 78% | 67% | 85% | – | – | – | –
548278 (antisense eG*eG*kT*dT*d[5mC]*d[5mC]*d[5mC]*dT*dA*dG*d[5mC]*dG*dG*kT*k[5mC]*e[5mC]) [compound 548278] | – | 400 nM | 3% | 59% | 78% | 93% | 74% | – | – | – | –
548338 (antisense eA*eT*kG*dA*dA*dA*d[5mC]*dT*dG*dT*dG*dG*d[5mC]*kT*k[5mC]*eG) [compound 548338] | – | 200 nM | 41% | 58% | 79% | 95% | – | 80% | – | – | –
548343 (antisense eT*eA*kG*dT*dG*dA*dT*dA*dA*dG*dA*dG*d[5mC]*kT*kG*eG) [compound 548343] | – | – | 61% | 67% | 88% | 92% | – | 78% | – | – | –
548348 (antisense eT*eG*kA*dG*dT*dG*dA*dT*dG*d[5mC]*d[5mC]*dT*dT*k[5mC]*k[5mC]*eA) [compound 548348] | – | 400 nM | 19% | 46% | 67% | 91% | – | 82% | – | – | –
548409 (antisense eG*eT*kA*dT*d[5mC]*dA*d[5mC]*dT*dG*dT*dA*d[5mC]*dT*kA*kG*eT) [compound 548409] | – | 300 nM | 21% | 60% | 90% | 93% | – | – | 81% | – | –
548410 (antisense eA*eG*kT*dA*dT*d[5mC]*dA*d[5mC]*dT*dG*dT*dA*d[5mC]*kT*kA*eG) [compound 548410] | – | 200 nM | 31% | 58% | 85% | 82% | – | – | 85% | – | –
548422 (antisense eG*eT*kA*dT*d[5mC]*dA*d[5mC]*dT*dG*dT*d[5mC]*d[5mC]*dT*kA*kT*eA) [compound 548422] | – | 700 nM | 0% | 32% | 71% | 93% | – | – | 69% | – | –
548424 (antisense e[5mC]*eA*kG*dT*dA*dT*d[5mC]*dA*d[5mC]*dT*dG*dT*d[5mC]*k[5mC]*kT*eA) [compound 548424] | – | 300 nM | 17% | 67% | 86% | 72% | – | – | 90% | – | –
548425 (antisense eA*eA*k[5mC]*dA*dG*dT*dA*dT*d[5mC]*dA*d[5mC]*dT*dG*kT*k[5mC]*e[5mC]) [compound 548425] | – | 200 nM | 41% | 57% | 68% | 80% | – | – | 90% | – | –
548479 (eA*eG*kG*d[5mC]*d[5mC]*dA*dT*dT*dT*dG*dA*dT*d[5mC]*k[5mC]*kG*eA; antisense) [compound 548479] | – | 400 nM | 2% | 52% | 82% | 97% | – | – | – | 68% | –
548486 (e[5mC]*eG*kT*dG*dG*dT*dT*dA*dG*d[5mC]*d[5mC]*dT*dG*kA*k[5mC]*eA; antisense) [compound 548486] | – | 400 nM | 20% | 48% | 77% | 92% | – | – | – | 68% | –
548521 (antisense e[5mC]*eA*kG*d[5mC]*dT*d[5mC]*d[5mC]*d[5mC]*dT*dT*dA*d[5mC]*dT*kA*kG*eG) [compound 548521] | – | > 3000 nM | 21% | 0% | 3% | 1% | – | – | – | 61% | –
548547 (antisense eG*eT*kG*d[5mC]*dG*dA*dT*dT*dA*dA*dG*d[5mC]*d[5mC]*k[5mC]*k[5mC]*eA) [compound 548547] | – | 400 nM | 30% | 41% | 76% | 90% | – | – | – | – | 86%
548557 (antisense eG*eT*kT*dA*d[5mC]*dT*d[5mC]*dT*dG*dT*dG*dA*dT*k[5mC]*k[5mC]*eA) [compound 548557] | – | 400 nM | 5% | 47% | 82% | 95% | – | – | – | – | 81%

From patent US11840686B2, “Modulation of prekallikrein (PKK) expression” (Ionis Pharmaceuticals, Inc., priority 2013, dated 2023)
